Data: publication PMC3141655 (BMC Biochemistry, 2011)
Where two headings read alike, the source gives them in different places.

Experiments:
[1] = biological target: T1, StOASS (O-acetylserine sulfhydrylase) (Salmonella typhimurium, UniProt P0A1E3); test: PLP fluorescence titration of ligands with StOASS; format: binding; set-up: His tag (N); made in house; host or cells: E. coli BL21(DE3), pET28a(+); details: for N (number of binding sites) / Qmax (maximum fluorescence quenching at saturation) / ΔG / Kobs / Qmax: 20 mM Tris pH 8.0; for Kd: from K1,obs and K2,obs of the PLP fluorescence titration, read-out: Kd
Procedure: Titrations of ligands with StOASS were examined by monitoring changes in the active site pyridoxal 5'phosphate (PLP) fluorescence of OASS using a Varian spectrofluorometer. The excitation and emission wavelengths for monitoring PLP signal change upon ligand binding were 412 nm and 507 nm respectively. All experiments were done at 23.0 ± 1°C. Slit widths were set to 5 nm for all experiments and PMT voltage was adjusted to get maximum signal for a given protein concentration. Initial readings of both the sample, Fsamp,0 and buffer, Fbuf,0 were taken, with F0 = Fsamp,0-Fbuf,0 defined as the initial fluorescence of the sample. The sample cuvette was then titrated with aliquots of ligands and mixed, equilibrated for 2-5 minutes before measurement. Data points from five such measurements were averaged to obtain Fave,i. The relative fluorescence quenching upon ligand binding is defined as Qobs,i = (F0-Fobs,i)/F0. All measurements were corrected for dilution, and inner filter effects.
Binding of ligands to OASS was analyzed to obtain the equilibrium binding constant, Kobs = [PL]/[P]*[L], using a single or two independent site binding models (eqn 1)(1) [drawing 1]
Where n, number of binding sites, Qobs, observed fluorescence quenching and Qmax, the maximum fluorescence quenching at saturation.

[2] = biological target: T2, HiOASS (O-acetylserine sulfhydrylase) (Haemophilus influenzae, UniProt P45040); test: PLP fluorescence titration of ligands with HiOASS; format: binding; set-up: His tag (N); made in house; host or cells: E. coli BL21(DE3), pET28a(+); details: 20 mM Tris pH 8.0
[3] = biological target: T1, StOASS (O-acetylserine sulfhydrylase)
Procedure: (§1) Isothermal titration calorimetry (ITC) experiments were performed using a Nano-ITC (TA-Instruments). OASS was dialyzed at 25°C in 20 mM Tris buffer (pH 8.0) and 50 mM NaCl. Buffer solutions were degassed at room temperature prior to use. […] The heat of dilution for each injection was determined using buffer in the cell. Data obtained from the titration of ligands with OASS were analyzed using either a two-sites binding model (eqn 2)(2) [drawing 2]
(§2) Qi^tot is total heat after the i^th injection, V0 is the volume of calorimetric cell, K1 and K2 are the observed equilibrium constants for each site, and ΔH1 and ΔH2 are the corresponding enthalpy changes. Estimates of Kobs and ΔH were obtained by fitting the experimental data to the model and the best-fit parameters were selected based on the lowest Chi-squared values.

[4] = biological target: T2, HiOASS (O-acetylserine sulfhydrylase); details: for TdS / ΔG / ΔH: 20 mM Tris pH 8.0, 50 mM NaCl
Procedure: as §1, §2

[5] = substrate: CC(=O)OC[C@H](N)C(=O)O; test: Steady state kinetic measurement of StOASS activity (ninhydrin-cysteine assay); format: biochemical, Salmonella typhimurium; details: other: 0.1M Hepes, pH 7.5, 30 °C, 2 mM Na2S, OAS 1-10 mM
Procedure: Steady state kinetic measurement of StOASS activity in the reaction buffer (as in Fig S2).
OASS activity was measured by monitoring the cysteine formation. Data were fitted to Michaelis-Menten equation using origin 5.0. The Km(OAS) was estimated to be 0.89 […]
Enzyme assay: Assay is based on the specific reaction of ninhydrin with cysteine under strong acidic conditions and monitoring of modified cysteine (ninhydrin-cysteine adduct) at 560 nm. The reaction was allowed to proceed for 20 minutes (30 °C, linear phase) with varied concentrations of OAS (1- 10 mM, 2 mM Na2S) in the reaction buffer (0.1M Hepes, pH 7.5, 150 µl reaction volume). The reaction was terminated with 5% TFA and centrifuged at 11000 rpm for 2 min. 125 µl glacial acetic acid + 125 µl acidic ninhydrin reagent were added to 125 µl of supernatant. Samples were boiled for 10 min at 100°C and cooled to room temperature. 600 µl of chilled absolute ethanol was added to the mix and the absorbance at 560 nm was used for determining the amount of cysteine present in the sample. Cysteine liberated was determined from a standard curve plotted by using known concentrations of cysteine.

[6] = [NaCl] 0.02 M, similar for each of two sites
[7] = 10°C, 20 mM Tris pH 8.0, 50 mM NaCl
[8] = 10°C, 20 mM Tris pH 8.0, 50 mM NaCl, two independent sites model
[9] = 15°C, 20 mM Tris pH 8.0, 50 mM NaCl
[10] = 20°C, 20 mM Tris pH 8.0, 50 mM NaCl
[11] = 25°C, 20 mM Tris pH 8.0, 50 mM NaCl
[12] = 30°C, 20 mM Tris pH 8.0, 50 mM NaCl
[13] = 35°C, 20 mM Tris pH 8.0, 50 mM NaCl
[14] = temperature not stated in the sentence (values match 30°C of Table 1)
[15] = from dependence of enthalpy on temperature

T2 sequence (P45040 whole entry): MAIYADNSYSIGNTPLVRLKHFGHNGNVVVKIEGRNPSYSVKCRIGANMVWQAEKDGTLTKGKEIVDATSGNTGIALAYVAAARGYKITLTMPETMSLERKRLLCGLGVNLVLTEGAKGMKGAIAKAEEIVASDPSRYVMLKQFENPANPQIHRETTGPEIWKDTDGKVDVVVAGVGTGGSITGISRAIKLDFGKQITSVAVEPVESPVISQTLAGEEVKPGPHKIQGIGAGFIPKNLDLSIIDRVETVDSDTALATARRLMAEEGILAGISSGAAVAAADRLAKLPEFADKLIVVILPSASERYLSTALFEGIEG

## CSCC[C@H](N)C(=O)O [Methionine, L-methionine]
[1]; [NaCl] 0.02 M
  N (number of binding sites): 2
  Qmax (maximum fluorescence quenching at saturation): 3.8
  ΔG: -3.18 ± 0.024 kcal/mol
[1]; [6]
  Kobs: 2.9 ± 0.1 × 10^2 M^-1
[1]; [NaCl] 0.02 M, similar for each of two sites, listed as methionine
  Kobs: 290 M⁻¹
[1]; [NaCl] 0.1 M
  Kobs: 6.5 ± 0.1 × 10^1 M^-1
  N (number of binding sites): 2
  Qmax: 1.0
  ΔG: -2.39 ± 0.024 kcal/mol
[1]; [NaCl] 0.2 M
  Kobs: 5.5 ± 0.1 × 10^1 M^-1
  N (number of binding sites): 2
  Qmax: 1.4
  ΔG: -2.25 ± 0.024 kcal/mol
[1]; [NaCl] 0.5 M
  Kobs: 3.5 ± 0.1 × 10^1 M^-1
  N (number of binding sites): 2
  Qmax: 0.5
  ΔG: -2.08 ± 0.024 kcal/mol
[1]
  Kd: ~3400 µM
[2]; [NaCl] 0.02 M
  Kobs: 1.5 ± 0.1 × 10^2 M^-1
  Qmax: 3.0
  ΔG: -2.82 ± 0.048 kcal/mol
[2]; [NaCl] 0.1 M
  Kobs: 5.8 ± 0.1 × 10^1 M^-1
  N (number of binding sites): 2
  Qmax: 0.5
  ΔG: -2.27 ± 0.12 kcal/mol
[2]; [NaCl] 0.2 M
  Kobs: 3.4 ± 0.1 × 10^1 M^-1
  N (number of binding sites): 2
  Qmax: 0.2
  ΔG: -1.94 ± 0.12 kcal/mol
[2]; [NaCl] 0.5 M
  Kobs: 2.3 ± 0.1 × 10^1 M^-1
  N (number of binding sites): 2
  Qmax: 0.2
  ΔG: -1.74 ± 0.14 kcal/mol
[3]; 25 mM HEPES, pH 8.0, 50 mM NaCl, 25°C
  ΔH: -0.4 ± 0.1 kJ/M
[3]; [7]
  TdS: 1.74 kcal/mol
  ΔH: -0.311 ± 0.024 kcal/mol
[3]; [8]
  ΔG: -2.06 ± 0.19 kcal/mol
[3]; [9]
  TdS: 1.72 kcal/mol
  ΔG: -2.06 ± 0.096 kcal/mol
  ΔH: -0.335 ± 0.024 kcal/mol
[3]; 20°C
  TΔS: 8.2 kJ/M
  ΔH: -1.5 ± 0.1 kJ/M
[3]; [10]
  TdS: 1.96 kcal/mol
  ΔG: -2.32 ± 0.12 kcal/mol
  ΔH: -0.359 ± 0.024 kcal/mol
[3]; [11]
  TdS: 2.06 kcal/mol
  ΔG: -2.27 ± 0.12 kcal/mol
  ΔH: -0.22 ± 0.024 kcal/mol
[3]; [12]
  TdS: 2.25 kcal/mol
  ΔG: -2.49 ± 0.19 kcal/mol
  ΔH: -0.239 ± 0.024 kcal/mol
[3]; [13]
  TdS: 2.41 kcal/mol
  ΔG: -2.7 ± 0.311 kcal/mol
  ΔH: -0.287 ± 0.024 kcal/mol
[3]; temperature not given
  net enthalpic contribution to total binding free energy: ~ 10%
[3]; [14]
  ΔG: -10.4 kJ/M
  ΔH: -1.0 ± 0.2 kJ/M
[4]
  enthalpic contribution to binding free energy: 8%
[4]; 10°C
  TdS: 1.7 kcal/mol
  ΔG: -1.72 ± 0.22 kcal/mol
  ΔH: -0.048 ± 0.024 kcal/mol
[4]; 15°C
  ΔG: -1.72 ± 0.22 kcal/mol
  ΔH: -0.048 ± 0.024 kcal/mol
[4]; 20°C
  TdS: 1.91 kcal/mol
  ΔG: -1.96 ± 0.239 kcal/mol
  ΔH: -0.048 ± 0.024 kcal/mol
[4]; 25°C
  TdS: 1.65 kcal/mol
  ΔG: -1.82 ± 0.263 kcal/mol
  ΔH: -0.19 ± 0.024 kcal/mol
[4]; 30°C
  TdS: 1.84 kcal/mol
  ΔG: -2.01 ± 0.239 kcal/mol
  ΔH: -0.17 ± 0.024 kcal/mol

## CC[C@H](C)[C@H](N)C(=O)O [isoleucine, L-isoleucine]
[1]; similar experimental conditions as cysteine/methionine titrations
  binding to OASS when presented as amino acid: does not bind OASS

## N[C@@H](CS)C(=O)O [Cysteine, L-cysteine]
[1]; [NaCl] 0.02-0.5 M
  dlogK/dlog [NaCl]: ~ -0.21 ± 0.1
[1]; [NaCl] 0.02 M
  N (number of binding sites): 2
  Qmax (maximum fluorescence quenching at saturation): 3.8
  ΔG: -3.59 ± 0.024 kcal/mol
[1]; [6]
  Kobs: 6.0 ± 0.1 × 10^2 M^-1
[1]; [NaCl] 0.02 M, similar for each of two sites, listed as cysteine
  Kobs: 600 M⁻¹
[1]; [NaCl] 0.05 M
  Kobs: 5.6 ± 0.1 × 10^2 M^-1
  N (number of binding sites): 2
  Qmax: 4.6
  ΔG: -3.56 ± 0.024 kcal/mol
[1]; [NaCl] 0.1 M
  Kobs: 4.5 ± 0.1 × 10^2 M^-1
  N (number of binding sites): 2
  Qmax: 4.6
  ΔG: -3.42 ± 0.024 kcal/mol
[1]; [NaCl] 0.2 M
  Kobs: 3.7 ± 0.1 × 10^2 M^-1
  N (number of binding sites): 2
  Qmax: 4.5
  ΔG: -3.32 ± 0.024 kcal/mol
[1]; [NaCl] 0.5 M
  Kobs: 2.6 ± 0.1 × 10^2 M^-1
  N (number of binding sites): 2
  Qmax: 4.7
  ΔG: -3.11 ± 0.024 kcal/mol
[1]
  Kd: ~1700 µM
[2]; [NaCl] 0.02 M
  Kobs: 6.6 ± 0.1 × 10^2 M^-1
  N (number of binding sites): 2
  Qmax: 3.9
  ΔG: -3.63 ± 0.024 kcal/mol
[2]; [NaCl] 0.05 M
  Kobs: 5.6 ± 0.1 × 10^2 M^-1
  N (number of binding sites): 2
  Qmax: 5.7
[2]; [NaCl] 0.1 M
  Kobs: 4.5 ± 0.1 × 10^1 M^-1
  N (number of binding sites): 2
  Qmax: 5.8
  ΔG: -2.15 ± 0.024 kcal/mol
[2]; [NaCl] 0.2 M
  Kobs: 3.1 ± 0.1 × 10^1 M^-1
  N (number of binding sites): 2
  Qmax: 5.8
  ΔG: -1.91 ± 0.024 kcal/mol
[2]; [NaCl] 0.5 M
  Kobs: 3.2 ± 0.1 × 10^1 M^-1
  N (number of binding sites): 2
  Qmax: 3.1
  ΔG: -1.91 ± 0.024 kcal/mol
[3]; [7]
  TdS: 1.65 kcal/mol
  ΔH: -0.645 ± 0.024 kcal/mol
[3]; [8]
  ΔG: -2.29 ± 0.096 kcal/mol
[3]; [9]
  TdS: 1.63 kcal/mol
  ΔG: -2.29 ± 0.072 kcal/mol
  ΔH: -0.669 ± 0.024 kcal/mol
[3]; 20°C
  TΔS: 3.4 kJ/M
  ΔH: -6.4 ± 0.1 kJ/M
[3]; [10]
  TdS: 0.813 kcal/mol
  ΔG: -2.34 ± 0.024 kcal/mol
  ΔH: -1.53 ± 0.024 kcal/mol
[3]; [11]
  TdS: 1.12 kcal/mol
  ΔG: -2.53 ± 0.024 kcal/mol
  ΔH: -1.41 ± 0.024 kcal/mol
[3]; [12]
  TdS: 1.39 kcal/mol
  ΔG: -2.44 ± 0.048 kcal/mol
  ΔH: -1.05 ± 0.048 kcal/mol
[3]; [13]
  TdS: 1.34 kcal/mol
  ΔG: -2.63 ± 0.048 kcal/mol
  ΔH: -1.29 ± 0.072 kcal/mol
[3]; [15]
  net heat capacity change ΔCp: -130 JK^-1M^-1
[4]; 10°C
  TdS: 0.884 kcal/mol
  ΔG: -1.98 ± 0.096 kcal/mol
  ΔH: -1.1 ± 0.024 kcal/mol
[4]; 15°C
  TdS: 0.98 kcal/mol
  ΔG: -2.08 ± 0.048 kcal/mol
  ΔH: -1.1 ± 0.048 kcal/mol
[4]; 20°C
  TdS: 1.22 kcal/mol
  ΔG: -2.27 ± 0.12 kcal/mol
  ΔH: -1.05 ± 0.048 kcal/mol
[4]; 25°C
  TdS: 0.98 kcal/mol
  ΔG: -2.27 ± 0.12 kcal/mol
  ΔH: -1.29 ± 0.072 kcal/mol
[4]; 30°C
  TdS: 1.55 kcal/mol
  ΔG: -2.63 ± 0.072 kcal/mol
  ΔH: -1.08 ± 0.096 kcal/mol
[4]; [15]
  heat capacity change ΔCp: -12 JK^-1M^-1

B1: StOASS (Salmonella enterica subsp. enterica serovar Typhimurium str. LT2) (protein)
chain: MSKIYEDNSLTIGHTPLVRLNRIGNGRILAKVESRNPSFSVKCRIGANMIWDAEKRGVLKPGVELVEPTSGNTGIALAYVAAARGYKLTLTMPETMSIERRKLLKALGANLVLTEGAKGMKGAIQKAEEIVASDPQKYLLLQQFSNPANPEIHEKTTGPEIWEDTDGQVDVFISGVGTGGTLTGVTRYIKGTKGKTDLITVAVEPTDSPVIAQALAGEEIKPGPHKIQGIGAGFIPGNLDLKLIDKVVGITNEEAISTARRLMEEEGILAGISSGAAVAAALKLQEDESFTNKNIVVILPSSGERYLSTALFADLFTEKELQQ
notes: His tag (N); made in house; host or cells: E. coli BL21(DE3), pET28a(+)
[5]
  Km: 890 µM
